Assay results reported in patent US10934282B2, “Heteroaromatic modulators of the retinoid-related orphan receptor gamma” (LEO PHARMA A/S, priority 2016, dated 2021).

Experiments:
[1] = tested on: IL-17A in Human peripheral mononuclear cells; assay: Human PBMC IL-17A assay; format: cell-based; settings: 72 h, EC50, antiCD3/antiCD28-coated beads, 3 days, alpha-LISA
Protocol: This assay measures the IL-17A inhibitory potential of test compounds in Human peripheral mononuclear cells.
Peripheral blood mononuclear cells (PBMC) were isolated from human buffy coats using density grade centrifugation (Lymphoprep, Medinor), washed twice in PBS and frozen at −150° C. for later use.
Test compounds were diluted in DMSO and 70 nL of titrated test and reference compounds were transferred by the Echo liquid handling system to a 384-well assay plate in to give a final concentration of 0.1% DMSO in the wells.
The PBMC were thawed, washed and suspended in RPMI-1640 supplemented with pen/strep, glutamax and 10% bovine calf serum. The cells were mixed with antiCD3/antiCD28-coated beads (1 cells pr one bead) (Milteney T-cell expansion kit), and immediately thereafter the cells were pipetted to the plate at 130,000c/well. The plate was incubated for 3 days in humidified air/CO2 (95%/5%) On day 3 the level of IL-17A in the culture supernatant is measured using alpha-LISA kit (Perkin Elmer). Cell viability was measured by adding 6 uL pr well Prestoblue© (Life Technologies) and incubating for 2 hours followed by fluorescent measurement (Ex535/Em615). EC50 values were calculated using a 4-parameter non-linear regression curve-fitting model. Donors may be pre-screened in order to select PBMC with a high secretion of IL-17A.

[2] = tested on: IL-17A levels in human peripheral blood; assay: tissue or blood; format: cell-based; settings: 72 h, read-out: Human Whole blood IL-17A (nM)
[3] = biological target: T1, human RORgt nuclear receptor (RORgT ligand binding domain protein) (Homo sapiens, UniProt P51449); assay: ROR-gamma binding assay (Scintillation Proximity Assay, displacement of [3H]-25-hydroxycholesterol); settings: EC50, SPA, 15 nM [3H]-25-Hydroxycholesterol, RORgT LBD 12 nM
T1 construct: purchased Proteros Biostructures GmbH
T1 sequence (P51449 with tags, fused parts or gaps): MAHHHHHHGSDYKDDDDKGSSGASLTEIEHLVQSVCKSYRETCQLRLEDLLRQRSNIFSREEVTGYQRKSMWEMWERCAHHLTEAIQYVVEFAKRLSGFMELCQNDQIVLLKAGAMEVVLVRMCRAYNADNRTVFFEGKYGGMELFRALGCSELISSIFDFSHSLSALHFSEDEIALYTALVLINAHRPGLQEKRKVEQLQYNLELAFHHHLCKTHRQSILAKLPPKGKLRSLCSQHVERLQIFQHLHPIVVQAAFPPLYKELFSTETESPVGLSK
Protocol: This assay is used to evaluate the binding affinity of compounds to the ligand-binding pocket of the human RORgt nuclear receptor based on displacement of a radio-ligand. The EC50 values are calculated using a four parameter fit. Compounds binding with high affinity to RORgt will have low EC50 values.
The assay is a Scintillation Proximity Assay (SPA) that involves competition between an unlabeled test compound and tritium-labeled 25-hydroxycholesterol for binding to RORgT ligand binding domain (LBD) protein immobilized on the surface of SPA beads. These beads contain a scintillant that emits light if excited by a radioactive particle, and this light is detected using a scintillation counter. In this assay, tritium-labelled 25-hydroxycholesterol is used as radiotracer.
400 nL of titrated test and reference compounds in DMSO were transferred by the Echo liquid handling system to a 384-well assay plate followed by addition of 5 μL [3H]-25-Hydroxycholesterol (Perkin Elmer) and 35 μL diluted RORgT LBD protein with the following amino acid sequence (HIS-FLG-tag): MAHHHHHHGSDYKDDDDKGSSGASLTEIEHLVQSVCKSYRETCQLRLEDLLRQRSNIFSREEVTGYQRKSMWEMWERCAHHLTEAIQYVVEFAKRLSGFMELCQNDQIVLLKAGAMEVVLVRMCRAYNADNRTVFFEGKYGGMELFRALGCSELISSIFDFSHSLSALHFSEDEIALYTALVLINAHRPGLQEKRKVEQLQYNLELAFHHHLCKTHRQSILAKLPPKGKLRSLCSQHVERLQIFQHLHPIVVQAAFPPLYKELFSTETESPVGLSK (SEQ ID NO: 1) (Purchased from Proteros Biostructures GmbH). After 30 min of preincubation, 40 μL of HIS-TAG PVT SPA beads (Perkin Elmer) were added. The plates were then incubated for minimum 4 hours at room temperature in darkness before measuring the SPA signal using a MicroBeta plate scintillation counter. Final assay conditions were: 50 mM HEPES pH 7.4, 150 mM NaCl, 5 mM MgCl2, 0.1% BSA, 4 μg/well HIS-TAG PVT SPA Beads, 30 ng/well RORgT LBD (equal to a final concentration of 12 nM), 15 nM [^3H]-25-Hydroxycholesterol, 0.5% DMSO and varying concentrations of test compound in a total volume of 80 μL/well. EC50 values were calculated using a 4-parameter non-linear regression curve-fitting model.

Compound	EC50 [1] [nM]	EC50 [2] [nM]	EC50 [3] [nM]
Cc1cc(CN2CCN(C(=O)C3CC3C)[C@@H](C)C2)c(C)c(Nc2nnc([C@@H](C)O)o2)c1 (stereo partly drawn) [Example 23, [(2S)-4-[[3-[[5-[(1R)-1-hydroxyethyl]-1,3,4-oxadiazol-2-yl]amino]-2,5-dimethyl-phenyl]methyl]-2-methyl-piperazin-1-yl]-(2-methylcyclopropyl)methanone]	368	238	125
Cc1cc(CN2CCN(C(=O)C3CCCC3)[C@@H](C)C2)c(C)c(Nc2nnc([C@@H](C)O)o2)c1 [Example 24, cyclopentyl-[(2S)-4-[[3-[[5-[(1R)-1-hydroxyethyl]-1,3,4-oxadiazol-2-yl]amino]-2,5-dimethyl-phenyl]methyl]-2-methyl-piperazin-1-yl]methanone]	35.9	112	38.6
Cc1cc(CN2CCN(C(=O)C3CCC(F)(F)C3)[C@@H](C)C2)c(C)c(Nc2nnc([C@@H](C)O)o2)c1 (stereo partly drawn) [Example 25, (3,3-difluorocyclopentyl)-[(2S)-4-[[3-[[5-[(1R)-1-hydroxyethyl]-1,3,4-oxadiazol-2-yl]amino]-2,5-dimethyl-phenyl]methyl]-2-methyl-piperazin-1-yl]methanone]	258	191	159
Cc1cc(CN2CCN(C(=O)CC3CCC3)[C@@H](C)C2)c(C)c(Nc2nnc([C@@H](C)O)o2)c1 [Example 26, 2-cyclobutyl-1-[(2S)-4-[[3-[[5-[(1R)-1-hydroxyethyl]-1,3,4-oxadiazol-2-yl]amino]-2,5-dimethyl-phenyl]methyl]-2-methyl-piperazin-1-yl]ethanone]	91.3	119	58.2
Cc1c(CN2CCN(C(=O)C3CCC3)[C@@H](C)C2)cc(C(F)F)cc1Nc1nnc([C@H](C)O)o1 [Example 27, cyclobutyl-[(2S)-4-[[5-(difluoromethyl)-3-[[5-[(1S)-1-hydroxyethyl]-1,3,4-oxadiazol-2-yl]amino]-2-methyl-phenyl]methyl]-2-methyl-piperazin-1-yl]methanone]	425	457	95.9
Cc1cc(CN2CCN(C(=O)OC(C)(C)C)[C@@H](C)C2)c(C)c(Nc2nnc([C@H]3C[C@@H](O)C3)o2)c1 [Example 29, tert-butyl (2S)-4-[[3-[[5-(3-hydroxycyclobutyl)-1,3,4-oxadiazol-2-yl]amino]-2,5-dimethyl-phenyl]methyl]-2-methyl-piperazine-1-carboxylate]	117	422	37.8
Cc1cc(CN2CCN(C(=O)OC(C)(C)C)[C@@H](C)C2)c(C)c(Nc2nnc(-c3cnnn3C)o2)c1 [Example 30, tert-butyl (2S)-4-[[2,5-dimethyl-3-[[5-(3-methyltriazol-4-yl)-1,3,4-oxadiazol-2-yl]amino]phenyl]methyl]-2-methyl-piperazine-1-carboxylate]	93.6	239	31.2
Cc1cc(CN2CCN(C(=O)OC(C)(C)C)[C@@H](C)C2)c(C)c(Nc2nnc(-c3ccnn3C)o2)c1 [Example 31, tert-butyl (2S)-4-[[2,5-dimethyl-3-[[5-(2-methylpyrazol-3-yl)-1,3,4-oxadiazol-2-yl]amino]phenyl]methyl]-2-methyl-piperazine-1-carboxylate]	63.5	231	32.4
Cc1cc(CN2CCN(C(=O)OC(C)(C)C)[C@@H](C)C2)c(C)c(Nc2nnc(-c3ccno3)o2)c1 [Example 32, tert-butyl (2S)-4-[[3-[(5-isoxazol-5-yl-1,3,4-oxadiazol-2-yl)amino]-2,5-dimethyl-phenyl]methyl]-2-methyl-piperazine-1-carboxylate]	101	392	26.4
Cc1cc(CN2CCN(C(=O)OC(C)(C)C)[C@@H](C)C2)c(C)c(Nc2nnc(-c3cnsn3)o2)c1 [Example 33, tert-butyl (2S)-4-[[2,5-dimethyl-3-[[5-(1,2,5-thiadiazol-3-yl)-1,3,4-oxadiazol-2-yl]amino]phenyl]methyl]-2-methyl-piperazine-1-carboxylate]	45.2	126	23.3
Cc1cc(CN2CCN(C(=O)OC(C)(C)C)[C@@H](C)C2)c(C)c(Nc2nnc(-c3nonc3C)o2)c1 [Example 34, tert-butyl (2S)-4-[[2,5-dimethyl-3-[[5-(4-methyl-1,2,5-oxadiazol-3-yl)-1,3,4-oxadiazol-2-yl]amino]phenyl]methyl]-2-methyl-piperazine-1-carboxylate]	24.8	83.7	24.6
Cc1cc(CN2CCN(C(=O)OC(C)C)[C@@H](C)C2)c(C)c(Nc2nnc(C)o2)c1 [Example 35, isopropyl (2S)-4-[[2,5-dimethyl-3-[(5-methyl-1,3,4-oxadiazol-2-yl)amino]phenyl]methyl]-2-methyl-piperazine-1-carboxylate]	106	499	33.9
Cc1cc(CN2CCN(C(=O)OC(C)C)[C@@H](C)C2)c(C)c(Nc2nnc([C@@H](N)CO)o2)c1 [Example 36, isopropyl (2S)-4-[[3-[[5-[(1S)-1-amino-2-hydroxy-ethyl]-1,3,4-oxadiazol-2-yl]amino]-2,5-dimethyl-phenyl]methyl]-2-methyl-piperazine-1-carboxylate]	366	451	84.1
Cc1cc(CN2CCN(C(=O)OC(C)C)[C@@H](C)C2)c(C)c(Nc2nnc([C@H]3C[C@@H](O)C3)o2)c1 [Example 37, isopropyl (2S)-4-[[3-[[5-(3-hydroxycyclobutyl)-1,3,4-oxadiazol-2-yl]amino]-2,5-dimethyl-phenyl]methyl]-2-methyl-piperazine-1-carboxylate]	43.7	426	40.8
CC[C@H](N)c1nnc(Nc2cc(Cl)cc(CN3CCN(C(=O)OC(C)C)[C@@H](C)C3)c2C)o1 [Example 38, isopropyl (2S)-4-[[3-[[5-[(1S)-1-aminopropyl]-1,3,4-oxadiazol-2-yl]amino]-5-chloro-2-methyl-phenyl]methyl]-2-methyl-piperazine-1-carboxylate]	58.5	403	49.7
Cc1c(CN2CCN(C(=O)OC(C)C)[C@@H](C)C2)cc(Cl)cc1Nc1nnc([C@@H](C)O)o1 [Example 39, isopropyl (2S)-4-[[5-chloro-3-[[5-[(1R)-1-hydroxyethyl]-1,3,4-oxadiazol-2-yl]amino]-2-methyl-phenyl]methyl]-2-methyl-piperazine-1-carboxylate]	38.2	377	29.2
Cc1c(CN2CCN(C(=O)OC(C)C)[C@@H](C)C2)cc(Cl)cc1Nc1nnc(C2COC2)o1 [Example 40, isopropyl (2S)-4-[[5-chloro-2-methyl-3-[[5-(oxetan-3-yl)-1,3,4-oxadiazol-2-yl]amino]phenyl]methyl]-2-methyl-piperazine-1-carboxylate]	212	365	21.2
